According to PubChem BioAssay AID342 (DTP/NCI, 2004):
Values joined by “and” are separate entries in the source; they are usually repeats but may differ in a detail not shown here. Equal entries are not always repeated. Square brackets hold non-standard residues; d marks the D form. Peptide text beside a SMILES is read from it. Ac5c = NC1(C(=O)O)CCCC1

System: Swiss mice, Sarcoma 180 sc, mean tumor weight T/C
Assay: NCI In Vivo Anticancer Drug Screen. Data for tumor model Sarcoma 180 (subcutaneous) in Swiss mice
Settings: endpoint: mean tumor weight, higher = larger tumour
Outline: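 Readout is the ratio of treated-group measurement to vehicle-control measurement (T/C), based on survival or tumor size in mice carrying transplanted tumors.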

[1] = dose: 300.0 mg/kg/injection, schedule: Q01DX007 (ip), vehicle: carboxymethylcellulose (CMC)
[2] = dose: 12.5 mg/kg/injection, schedule: Q01DX007 (ip), vehicle: water
[3] = dose: 25.0 mg/kg/injection, schedule: Q01DX007 (ip), vehicle: water
[4] = dose: 50.0 mg/kg/injection, schedule: Q01DX007 (ip), vehicle: water

[Cl][Pt+2]([Cl])([Cl])[Cl].[Na+].[S-]c1ncnc2nc[nH]c12.[S-]c1ncnc2nc[nH]c12
T/C (dose: 1.1 mg/kg/injection, schedule: Q01DX007 (ip), vehicle: carboxymethylcellulose (CMC)): 92 % of control
T/C (dose: 10.0 mg/kg/injection, schedule: Q01DX007 (ip), vehicle: carboxymethylcellulose (CMC)): 45 % of control
T/C (dose: 19.0 mg/kg/injection, schedule: Q01DX007 (ip), vehicle: carboxymethylcellulose (CMC)): 74 % of control
T/C (dose: 20.0 mg/kg/injection, schedule: Q01DX007 (ip), vehicle: carboxymethylcellulose (CMC)): 40 % of control
T/C (dose: 22.0 mg/kg/injection, schedule: Q#A X014 (ip), vehicle: methylcellulose (MC)): 47 % of control and 50 % of control
T/C (dose: 22.2 mg/kg/injection, schedule: Q#A X014 (ip), vehicle: carboxymethylcellulose (CMC)): 29 % of control
T/C (dose: 29.0 mg/kg/injection, schedule: Q01DX007 (ip), vehicle: carboxymethylcellulose (CMC)): 43 % of control
T/C (dose: 30.0 mg/kg/injection, schedule: Q01DX007 (ip), vehicle: carboxymethylcellulose (CMC)): 54 % of control
T/C (dose: 33.3 mg/kg/injection, schedule: Q#A X014 (ip), vehicle: carboxymethylcellulose (CMC)): 24 % of control
T/C (dose: 44.0 mg/kg/injection, schedule: Q01DX007 (ip), vehicle: carboxymethylcellulose (CMC)): 38 % of control and 41 % of control
T/C (dose: 50.0 mg/kg/injection, schedule: Q#A X014 (ip), vehicle: carboxymethylcellulose (CMC)): 10 % of control
T/C (dose: 50.0 mg/kg/injection, schedule: Q#A X014 (ip), vehicle: methylcellulose (MC)): 24 % of control and 44 % of control
T/C (dose: 65.0 mg/kg/injection, schedule: Q01DX007 (ip), vehicle: carboxymethylcellulose (CMC)): 28 % of control
T/C (dose: 66.0 mg/kg/injection, schedule: Q01DX007 (ip), vehicle: carboxymethylcellulose (CMC)): 57 % of control
T/C (dose: 75.0 mg/kg/injection, schedule: Q#A X014 (ip), vehicle: carboxymethylcellulose (CMC)): 7 % of control
T/C (dose: 75.0 mg/kg/injection, schedule: Q#A X014 (ip), vehicle: methylcellulose (MC)): 16 % of control and 34 % of control
T/C (dose: 220.0 mg/kg/injection, schedule: Q01DX007 (ip), vehicle: carboxymethylcellulose (CMC)): 11 % of control
T/C [1]: 1 % of control

N=C(c1nsnc1N)N1CCCC1
T/C (dose: 125.0 mg/kg/injection, schedule: Q01DX007 (ip), vehicle: saline): 100 % of control

CN(C)[C@@H]1C(=O)C(C(=O)NCc2nc3[nH]cnc(=S)c3[nH]2)=C(O)[C@@]2(O)C(=O)C3=C(O)c4c(O)cccc4[C@@](C)(O)[C@H]3C[C@@H]12
T/C (dose: 14.0 mg/kg/injection, schedule: Q01DX007 (ip), vehicle: carboxymethylcellulose (CMC)): 71 % of control
T/C (dose: 28.0 mg/kg/injection, schedule: Q01DX007 (ip), vehicle: carboxymethylcellulose (CMC)): 58 % of control
T/C (dose: 56.0 mg/kg/injection, schedule: Q01DX007 (ip), vehicle: carboxymethylcellulose (CMC)): 54 % of control and 62 % of control
T/C (dose: 224.0 mg/kg/injection, schedule: Q01DX007 (ip), vehicle: carboxymethylcellulose (CMC)): 29 % of control

O=C(c1ccccc1)C(C(=O)c1ccccc1)C(=O)c1ccccc1.O=C(c1ccccc1)C(C(=O)c1ccccc1)C(=O)c1ccccc1.[Cu]
T/C (dose: 55.0 mg/kg/injection, schedule: Q01DX007 (ip), vehicle: carboxymethylcellulose (CMC)): 68 % of control and 70 % of control
T/C (dose: 85.0 mg/kg/injection, schedule: Q01DX007 (ip), vehicle: carboxymethylcellulose (CMC)): 63 % of control and 84 % of control
T/C (dose: 190.0 mg/kg/injection, schedule: Q01DX007 (ip), vehicle: carboxymethylcellulose (CMC)): 60 % of control and 64 % of control
T/C (dose: 284.0 mg/kg/injection, schedule: Q01DX007 (ip), vehicle: carboxymethylcellulose (CMC)): 66 % of control

O=C(O)Cc1ccc(C2CCCCC2)cc1
T/C (dose: 37.5 mg/kg/injection, schedule: Q01DX007 (ip), vehicle: carboxymethylcellulose (CMC)): 120 % of control
T/C (dose: 75.0 mg/kg/injection, schedule: Q01DX007 (ip), vehicle: carboxymethylcellulose (CMC)): 115 % of control
T/C (dose: 150.0 mg/kg/injection, schedule: Q01DX007 (ip), vehicle: carboxymethylcellulose (CMC)): 80 % of control
T/C [1]: 70 % of control and 75 % of control
T/C (dose: 600.0 mg/kg/injection, schedule: Q01DX007 (ip), vehicle: carboxymethylcellulose (CMC)): 67 % of control

NC1(C(=O)NC2(C(=O)O)CCCC2)CCCC1 (H-[Ac5c]-[Ac5c]-OH)
T/C (dose: 7.5 mg/kg/injection, schedule: Q#A X014 (ip), vehicle: carboxymethylcellulose (CMC)): 66 % of control
T/C (dose: 15.0 mg/kg/injection, schedule: Q#A X014 (ip), vehicle: carboxymethylcellulose (CMC)): 65 % of control
T/C (dose: 30.0 mg/kg/injection, schedule: Q#A X014 (ip), vehicle: carboxymethylcellulose (CMC)): 58 % of control
T/C (dose: 60.0 mg/kg/injection, schedule: Q#A X014 (ip), vehicle: carboxymethylcellulose (CMC)): 32 % of control

Nc1ccc(C(=O)O)c(O)c1
T/C (dose: 95.87 mg/kg/injection, schedule: Q01DX007 (ip), vehicle: carboxymethylcellulose (CMC)): 108 % of control and 121 % of control
T/C (dose: 306.8 mg/kg/injection, schedule: Q01DX007 (ip), vehicle: carboxymethylcellulose (CMC)): 44 % of control
T/C (dose: 511.33 mg/kg/injection, schedule: Q01DX007 (ip), vehicle: carboxymethylcellulose (CMC)): 57 % of control

CC/C(=C(/CC)c1ccc(O)cc1)c1ccc(O)cc1
T/C (dose: 19.69 mg/kg/injection, schedule: Q01DX007 (sc), vehicle: steriod suspending solution): 54 % of control
T/C (dose: 22.13 mg/kg/injection, schedule: Q01DX007 (sc), vehicle: steriod suspending solution): 51 % of control
T/C (dose: 24.0 mg/kg/injection, schedule: Q01DX007 (sc), vehicle: steriod suspending solution): 51 % of control
T/C (dose: 39.38 mg/kg/injection, schedule: Q01DX007 (sc), vehicle: steriod suspending solution): 42 % of control
T/C (dose: 44.25 mg/kg/injection, schedule: Q01DX007 (sc), vehicle: steriod suspending solution): 60 % of control
T/C (dose: 48.0 mg/kg/injection, schedule: Q01DX007 (sc), vehicle: steriod suspending solution): 37 % of control
T/C (dose: 70.8 mg/kg/injection, schedule: Q01DX007 (sc), vehicle: steriod suspending solution): 80 % of control
T/C (dose: 78.75 mg/kg/injection, schedule: Q01DX007 (sc), vehicle: steriod suspending solution): 65 % of control
T/C (dose: 96.0 mg/kg/injection, schedule: Q01DX007 (sc), vehicle: steriod suspending solution): 30 % of control
T/C (dose: 118.0 mg/kg/injection, schedule: Q01DX007 (sc), vehicle: steriod suspending solution): 72 % of control
T/C (dose: 157.5 mg/kg/injection, schedule: Q01DX007 (sc), vehicle: steriod suspending solution): 52 % of control
T/C (dose: 177.0 mg/kg/injection, schedule: Q01DX007 (sc), vehicle: steriod suspending solution): 57 % of control

COC1=C(N(C)C)C(=O)c2ncccc2C1=O
T/C [2]: 86 % of control
T/C [3]: 72 % of control
T/C [4]: 92 % of control

O=CCC(O)C(O)C(O)CO (configuration not stated)
T/C (dose: 125.0 mg/kg/injection, schedule: Q01DX007 (ip), vehicle: carboxymethylcellulose (CMC)): 86 % of control
T/C (dose: 250.0 mg/kg/injection, schedule: Q01DX007 (ip), vehicle: carboxymethylcellulose (CMC)): 75 % of control
T/C (dose: 500.0 mg/kg/injection, schedule: Q01DX007 (ip), vehicle: carboxymethylcellulose (CMC)): 76 % of control
T/C (dose: 1000.0 mg/kg/injection, schedule: Q01DX007 (ip), vehicle: carboxymethylcellulose (CMC)): 67 % of control

CN(C)c1ccc(/C=C\c2ccnc3ccccc23)cc1
T/C [2]: 123 % of control
T/C (dose: 16.0 mg/kg/injection, schedule: Q01DX007 (ip), vehicle: methylcellulose (MC)): 118 % of control
T/C (dose: 24.0 mg/kg/injection, schedule: Q01DX007 (ip), vehicle: methylcellulose (MC)): 80 % of control
T/C [3]: 114 % of control
T/C (dose: 36.0 mg/kg/injection, schedule: Q01DX007 (ip), vehicle: methylcellulose (MC)): 66 % of control
T/C [4]: 80 % of control

CC1CN(C(=O)CCl)c2ccccc2N1C(=O)CCl (configuration not stated)
T/C (dose: 2.0 mg/kg/injection, schedule: Q01DX007 (ip), vehicle: carboxymethylcellulose (CMC)): 121 % of control
T/C (dose: 4.0 mg/kg/injection, schedule: Q01DX007 (ip), vehicle: carboxymethylcellulose (CMC)): 114 % of control

COc1ccc(C[C@H]2NC[C@H](O)[C@H]2OC(C)=O)cc1
T/C (dose: 3.13 mg/kg/injection, schedule: Q01DX007 (ip), vehicle: saline): 65 % of control
T/C (dose: 6.25 mg/kg/injection, schedule: Q01DX007 (ip), vehicle: saline): 69 % of control
T/C (dose: 12.5 mg/kg/injection, schedule: Q01DX007 (ip), vehicle: saline): 58 % of control
T/C (dose: 25.0 mg/kg/injection, schedule: Q01DX007 (ip), vehicle: saline): 56 % of control and 66 % of control
T/C (dose: 50.0 mg/kg/injection, schedule: Q01DX007 (ip), vehicle: saline): 108 % of control
T/C (dose: 100.0 mg/kg/injection, schedule: Q01DX007 (ip), vehicle: saline): 104 % of control
